The values below are quoted from earlier work in patent US8047146B2, “Subsurface soil injection apparatus and method” (priority 2001, dated 2011).

≈ marks a conversion by molar mass, not a printed value.

For data set [1] the following is noted: rapidly photodegrades in light.

As for `CI` [Iodomethane, iodomethane], the solubility in water is 14.2 mg/mL (≈ 100 mM). Moreover, the “lifetime in the atmosphere” value in data set [1] is 1.5 to 4 days.
